The text below walks through data of patent US8471005B2 (Cephalon, Inc., priority 2008, dated 2013).

The target in assay [1] is T1, JAK2 (Homo sapiens, UniProt O60674).
T1 construct: host or cells: baculovirus expression system
Briefly: Recombinant Human JAK2 Kinase Assay (TRF). In kind it is biochemical. The note with it: JAK2 kinase inhibition, 0.2 μM ATP; read-out: JAK2 Potency. The procedure, abridged: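 Europium-labelled PY100 antibody reported tyrosine phosphorylation of a Neutravidin-captured biotinyl 15-mer peptide by JAK2 (baculovirus-expressed, 15 ng/ml). Conditions: 20 mM HEPES pH 7.2, 0.2 μM ATP, 1 mM MnCl2, 0.1% BSA, DMSO 2.5% final, 20 min at room temperature.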

For assay [2], the target named is T2, ALK (Homo sapiens, UniProt Q9UM73).
T2 construct: host or cells: baculovirus expression system
T2 sequence (Q9UM73 19-1620): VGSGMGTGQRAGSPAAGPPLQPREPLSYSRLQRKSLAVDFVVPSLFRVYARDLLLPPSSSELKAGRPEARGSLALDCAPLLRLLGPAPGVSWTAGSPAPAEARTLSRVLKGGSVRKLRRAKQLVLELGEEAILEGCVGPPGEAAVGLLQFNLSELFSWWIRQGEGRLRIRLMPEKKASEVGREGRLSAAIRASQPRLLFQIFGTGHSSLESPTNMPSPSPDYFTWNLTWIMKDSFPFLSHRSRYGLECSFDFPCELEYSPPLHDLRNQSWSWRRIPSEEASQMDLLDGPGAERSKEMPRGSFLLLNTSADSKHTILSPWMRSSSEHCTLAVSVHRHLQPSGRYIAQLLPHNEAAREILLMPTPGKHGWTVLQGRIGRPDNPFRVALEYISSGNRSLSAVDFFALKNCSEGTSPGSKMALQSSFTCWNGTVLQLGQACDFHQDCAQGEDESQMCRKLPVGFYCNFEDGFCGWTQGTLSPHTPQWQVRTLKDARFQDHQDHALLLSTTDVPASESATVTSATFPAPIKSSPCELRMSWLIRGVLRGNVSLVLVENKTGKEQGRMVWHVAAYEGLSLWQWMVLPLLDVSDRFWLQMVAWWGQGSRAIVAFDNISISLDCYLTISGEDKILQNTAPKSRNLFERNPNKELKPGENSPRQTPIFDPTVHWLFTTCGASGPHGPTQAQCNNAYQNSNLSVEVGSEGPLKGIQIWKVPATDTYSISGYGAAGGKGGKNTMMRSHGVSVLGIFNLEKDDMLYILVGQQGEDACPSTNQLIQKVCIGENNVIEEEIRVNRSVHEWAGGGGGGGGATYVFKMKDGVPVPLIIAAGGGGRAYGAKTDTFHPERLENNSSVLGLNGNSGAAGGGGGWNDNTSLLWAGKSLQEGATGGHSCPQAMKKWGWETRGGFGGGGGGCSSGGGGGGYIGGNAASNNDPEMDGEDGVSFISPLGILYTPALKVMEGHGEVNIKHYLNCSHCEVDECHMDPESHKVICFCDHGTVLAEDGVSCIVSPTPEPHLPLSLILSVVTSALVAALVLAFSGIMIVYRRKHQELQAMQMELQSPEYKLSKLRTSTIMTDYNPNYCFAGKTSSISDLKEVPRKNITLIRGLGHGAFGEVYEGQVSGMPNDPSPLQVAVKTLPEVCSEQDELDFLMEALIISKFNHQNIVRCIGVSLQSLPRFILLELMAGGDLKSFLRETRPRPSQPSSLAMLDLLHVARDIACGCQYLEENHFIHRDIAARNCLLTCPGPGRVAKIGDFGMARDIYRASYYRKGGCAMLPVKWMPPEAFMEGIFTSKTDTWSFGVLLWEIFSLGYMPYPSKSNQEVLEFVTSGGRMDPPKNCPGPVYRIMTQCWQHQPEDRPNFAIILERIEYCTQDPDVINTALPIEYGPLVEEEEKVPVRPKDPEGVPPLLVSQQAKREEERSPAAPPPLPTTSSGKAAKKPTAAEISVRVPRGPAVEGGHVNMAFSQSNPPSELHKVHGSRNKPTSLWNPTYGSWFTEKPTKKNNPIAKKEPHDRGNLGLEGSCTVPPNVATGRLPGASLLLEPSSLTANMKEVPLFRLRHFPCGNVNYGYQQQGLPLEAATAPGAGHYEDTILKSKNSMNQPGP
Briefly: ALK Kinase Assay (ELISA/TRF, PLC-γ substrate). The note with it: ALK kinase inhibition, 1 μM ATP; read-out: ALK Potency. In kind it is biochemical. The method, boiled down:
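Read-out is time-resolved fluorescence from a Eu-N1-labeled PT66 antibody that binds phosphorylated PLC-γ, the substrate coated at 10 μg/mL in TBS. ALK at 30 ng/ml starts the reaction, which runs 15 minutes at 37° C.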
(In general: In an ELISA, binding on a coated surface is turned into a signal by an enzyme label.)

The structures appear in SMILES notation.

T1 sequence (O60674 whole entry): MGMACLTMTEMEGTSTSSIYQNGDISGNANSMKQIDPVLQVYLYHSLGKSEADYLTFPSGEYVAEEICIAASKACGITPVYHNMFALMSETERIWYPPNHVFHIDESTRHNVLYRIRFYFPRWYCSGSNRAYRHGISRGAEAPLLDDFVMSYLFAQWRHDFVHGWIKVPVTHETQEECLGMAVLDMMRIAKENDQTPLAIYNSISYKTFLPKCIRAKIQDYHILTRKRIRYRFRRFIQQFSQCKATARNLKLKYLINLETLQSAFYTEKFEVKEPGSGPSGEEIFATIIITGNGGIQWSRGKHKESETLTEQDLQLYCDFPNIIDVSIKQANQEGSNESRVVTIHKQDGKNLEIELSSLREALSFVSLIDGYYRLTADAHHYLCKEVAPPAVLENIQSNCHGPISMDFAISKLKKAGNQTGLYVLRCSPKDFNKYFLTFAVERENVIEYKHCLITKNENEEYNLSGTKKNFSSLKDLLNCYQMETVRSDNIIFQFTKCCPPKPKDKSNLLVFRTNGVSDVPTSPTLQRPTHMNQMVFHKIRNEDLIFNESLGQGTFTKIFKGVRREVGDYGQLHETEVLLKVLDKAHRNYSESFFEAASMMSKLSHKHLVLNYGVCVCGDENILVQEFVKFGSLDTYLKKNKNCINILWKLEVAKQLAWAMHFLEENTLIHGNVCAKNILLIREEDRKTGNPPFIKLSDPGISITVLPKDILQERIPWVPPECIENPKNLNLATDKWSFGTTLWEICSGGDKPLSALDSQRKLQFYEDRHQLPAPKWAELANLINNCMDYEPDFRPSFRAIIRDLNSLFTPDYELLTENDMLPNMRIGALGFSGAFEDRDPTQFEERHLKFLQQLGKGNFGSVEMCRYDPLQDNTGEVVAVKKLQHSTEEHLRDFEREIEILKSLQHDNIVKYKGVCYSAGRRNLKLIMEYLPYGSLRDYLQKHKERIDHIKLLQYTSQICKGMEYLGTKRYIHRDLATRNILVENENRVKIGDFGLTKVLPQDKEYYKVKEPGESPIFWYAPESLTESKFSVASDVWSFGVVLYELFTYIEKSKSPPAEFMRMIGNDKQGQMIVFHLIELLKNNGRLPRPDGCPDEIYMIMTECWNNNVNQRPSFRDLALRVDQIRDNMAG

Regarding `CN1CCN(c2ccc(Nc3ncc4ccc(-c5cccc(C(=O)OC(C)(C)C)c5)n4n3)cc2)CC1` [Example 1143, 3-{2-[4-(4-Methyl-piperazin-1-yl)-phenylamino]-pyrrolo[2,1-f][1,2,4]triazin-7-yl}-benzoic acid tert-butyl ester], the IC50 in assay [1] was < 100 nM; in assay [2] it was 100 to 1000 nM.
Turning to `N#CCOc1ccccc1-c1ccc2cnc(Nc3ccc(N4CCOCC4)cc3)nn12` [Example 1144, {2-[2-(4-Morpholin-4-yl-phenylamino)-pyrrolo[2,1-f][1,2,4]triazin-7-yl]-phenoxy}-acetonitrile], the IC50 in assay [1] and in assay [2] was < 100 nM throughout.
With `N#CCCc1cccc(-c2ccc3cnc(Nc4ccc(N5CCOCC5)cc4)nn23)c1` [Example 1145, 3-{3-[2-(4-Morpholin-4-yl-phenylamino)-pyrrolo[2,1-f][1,2,4]triazin-7-yl]-phenyl}-propionitrile], the figures for the IC50 in assay [1] and in assay [2] were < 100 nM and 100 to 1000 nM, respectively.
The matching figures for `CCOC(=O)c1ccccc1-c1ccc2cnc(Nc3ccc(N4CCN(C)CC4)cc3)nn12` [Example 1146, 2-{2-[4-(4-Methyl-piperazin-1-yl)-phenylamino]-pyrrolo[2,1-f][1,2,4]triazin-7-yl}-benzoic acid ethyl ester]: < 100 nM and 100 to 1000 nM.
For `C#CCNC(=O)c1cccc(-c2ccc3cnc(Nc4ccc(N5CCN(C)CC5)cc4)nn23)c1` [Example 1147, 3-{2-[4-(4-Methyl-piperazin-1-yl)-phenylamino]-pyrrolo[2,1-f][1,2,4]triazin-7-yl}-N-prop-2-ynyl-benzamide] the same measures were < 100 nM and 100 to 1000 nM.
For the molecule `N#CCCc1cccc(-c2ccc3cnc(Nc4ccc5c(c4)CCC(N4CCOCC4)CC5)nn23)c1` (centres unmarked) [Example 1148, 3-{3-[2-(7-Morpholin-4-yl-6,7,8,9-tetrahydro-5H-benzocyclohepten-2-ylamino)-pyrrolo[2,1-f][1,2,4]triazin-7-yl]-phenyl}-propionitrile], the IC50 in assay [1] and in assay [2] was < 100 nM each time.
In the case of `CN1CCC(c2ccc(Nc3ncc4ccc(-c5cccc(CCC#N)c5)n4n3)cc2)CC1` [Example 1149, 3-(3-{2-[4-(1-Methyl-piperidin-4-yl)-phenylamino]-pyrrolo[2,1-f][1,2,4]triazin-7-yl}-phenyl)-propionitrile], the IC50 in assay [1] and in assay [2] was < 100 nM in each case.
For `N#CCCc1cccc(-c2ccc3cnc(Nc4ccc(N5CCC(N6CCOCC6)CC5)cc4)nn23)c1` [Example 1150, 3-(3-{2-[4-(4-Morpholin-4-yl-piperidin-1-yl)-phenylamino]-pyrrolo[2,1-f][1,2,4]triazin-7-yl}-phenyl)-propionitrile], the IC50 in assay [1] and in assay [2] was < 100 nM in each case.
Take `N#CCCc1cccc(-c2ccc3cnc(Nc4ccc(N5CCN(CCO)CC5)cc4)nn23)c1` [Example 1151, 3-[3-(2-{4-[4-(2-Hydroxy-ethyl)-piperazin-1-yl]-phenylamino}-pyrrolo[2,1-f][1,2,4]triazin-7-yl)-phenyl]-propionitrile]: the IC50 in assay [1] and in assay [2] was < 100 nM throughout.
Turning to `COCCN1CCc2ccc(Nc3ncc4ccc(-c5cccc(CCC#N)c5)n4n3)cc2CC1` [Example 1152, 3-(3-{2-[3-(2-Methoxy-ethyl)-2,3,4,5-tetrahydro-1H-benzo[d]azepin-7-ylamino]-pyrrolo[2,1-f][1,2,4]triazin-7-yl}-phenyl)-propionitrile], the IC50 in assay [1] and in assay [2] was < 100 nM in each case.
On to `CN1CCN(c2cccc(Nc3ncc4ccc(-c5cccc(CCC#N)c5)n4n3)c2)CC1` [Example 1153, 3-(3-{2-[3-(4-Methyl-piperazin-1-yl)-phenylamino]-pyrrolo[2,1-f][1,2,4]triazin-7-yl}-phenyl)-propionitrile], for which the IC50 in assay [1] and in assay [2] was < 100 nM in each case.
In the case of `CN1CCN(c2ccc(Nc3ncc4ccc(-c5ccccc5O)n4n3)cc2)CC1` [Example 1154, 2-{2-[4-(4-Methyl-piperazin-1-yl)-phenylamino]-pyrrolo[2,1-f][1,2,4]triazin-7-yl}-phenol], the IC50 in assay [1] and in assay [2] was < 100 nM in each case.
On to `CN1CCN(c2ccc(Nc3ncc4cc(-c5ccccc5OCC#N)cn4n3)cc2)CC1` [Example 1155, (2-{2-[4-(4-Methyl-piperazin-1-yl)-phenylamino]-pyrrolo[2,1-f][1,2,4]triazin-6-yl}-phenoxy)-acetonitrile], for which the IC50 lay within 100 to 1000 nM in assay [1] and 1000 to 10000 nM in assay [2].
On to `COc1ccccc1-c1cc2cnc(Nc3ccc(N4CCN(C)CC4)cc3)nn2c1` [Example 1156, [6-(2-Methoxy-phenyl)-pyrrolo[2,1-f][1,2,4]triazin-2-yl]-[4-(4-methyl-piperazin-1-yl)-phenyl]-amine], for which the IC50 in assay [1] fell in the range of 100 to 1000 nM; in assay [2], 1000 to 10000 nM.
For the molecule `CN1CCN(c2ccc(Nc3ncc4cc(-c5ccncc5)cn4n3)cc2)CC1` [Example 1158], the IC50 in assay [1] was < 100 nM; in assay [2] it was > 10000 nM.
Consider `COc1cc(N2CCC(N3CCOCC3)CC2)ccc1Nc1ncc2ccc(-c3cccc(CCC#N)c3)n2n1` [Example 1159, 3-(3-{2-[2-Methoxy-4-(4-morpholin-4-yl-piperidin-1-yl)-phenylamino]-pyrrolo[2,1-f][1,2,4]triazin-7-yl}-phenyl)-propionitrile], for which the IC50 in assay [1] and in assay [2] was < 100 nM in each case.
Turning to `CN1CCN(c2ccc(Nc3ncc4cc(-c5cccc(CCC#N)c5)cn4n3)cc2)CC1` [Example 1161, 3-(3-{2-[4-(4-Methyl-piperazin-1-yl)-phenylamino]-pyrrolo[2,1-f][1,2,4]triazin-6-yl}-phenyl)-propionitrile], the IC50 in assay [1] was < 100 nM; in assay [2], 100 to 1000 nM.
Turning to `CN1CCN(c2ccc(Nc3ncc4ccc(-c5cccc(CNCCS(C)(=O)=O)c5)n4n3)cc2)CC1` [Example 1162, (7-{3-[(2-Methanesulfonyl-ethylamino)-methyl]-phenyl}-pyrrolo[2,1-f][1,2,4]triazin-2-yl)-[4-(4-methyl-piperazin-1-yl)-phenyl]-amine], the IC50 is < 100 nM in assay [1] and 100 to 1000 nM in assay [2].
Turning to `CN1CCN(c2ccc(Nc3ncc4ccc(NCc5cccc([N+](=O)[O-])c5)n4n3)cc2)CC1` [Example 1163, N(2)-[4-(4-Methyl-piperazin-1-yl)-phenyl]-N(7)-(3-nitro-benzyl)-pyrrolo[2,1-f][1,2,4]triazine-2,7-diamine], the results for the IC50 in assay [1] and in assay [2] were < 100 nM and 100 to 1000 nM, respectively.
As to `CN1CCN(c2ccc(Nc3ncc4ccc(NCc5cccnc5)n4n3)cc2)CC1` [Example 1164, N(2)-[4-(4-Methyl-piperazin-1-yl)-phenyl]-N(7)-pyridin-3-ylmethyl-pyrrolo[2,1-f][1,2,4]triazine-2,7-diamine], the figures for the IC50 in assay [1] and in assay [2] were < 100 nM and 100 to 1000 nM, respectively.
For `CN1CCN(c2ccc(Nc3ncc4ccc(NCc5ccncc5)n4n3)cc2)CC1` [Example 1165, N(2)-[4-(4-Methyl-piperazin-1-yl)-phenyl]-N(7)-pyridin-4-ylmethyl-pyrrolo[2,1-f][1,2,4]triazine-2,7-diamine] the same measures were < 100 nM and 1000 to 10000 nM.
The matching figures for `CN1CCN(c2ccc(Nc3ncc4ccc(-c5cccc(N6CCN(C(=O)OC(C)(C)C)CC6)c5)n4n3)cc2)CC1` [Example 1166, 4-(3-{2-[4-(4-Methyl-piperazin-1-yl)-phenylamino]-pyrrolo[2,1-f][1,2,4]triazin-7-yl}-phenyl)-piperazine-1-carboxylic acid tert-butyl ester]: < 100 nM and 1000 to 10000 nM.
`CN1CCN(c2cccc(Nc3ncc4ccc(NCc5ccncc5)n4n3)c2)CC1` [Example 1167, N(2)-[3-(4-Methyl-piperazin-1-yl)-phenyl]-N(7)-pyridin-4-ylmethyl-pyrrolo[2,1-f][1,2,4]triazine-2,7-diamine]: the IC50 was 100 to 1000 nM in assay [1] and > 10000 nM in assay [2].
The matching figures for `CN1CCN(c2cccc(Nc3ncc4ccc(NCc5cccnc5)n4n3)c2)CC1` [Example 1168, N-(2)-[3-(4-Methyl-piperazin-1-yl)-phenyl]-N(7)-pyridin-3-ylmethyl-pyrrolo[2,1-f][1,2,4]triazine-2,7-diamine]: < 100 nM and 1000 to 10000 nM.
For `CN1CCN(c2ccc(Nc3ncc4ccc(-c5cccc(N6CCNCC6)c5)n4n3)cc2)CC1` [Example 1169, [4-(4-Methyl-piperazin-1-yl)-phenyl]-[7-(3-piperazin-1-yl-phenyl)-pyrrolo[2,1-f][1,2,4]triazin-2-yl]-amine] the same measures were < 100 nM and 100 to 1000 nM.
For `COc1cc(N2CCC(N3CCOCC3)CC2)ccc1Nc1ncc2ccc(-c3cccnc3)n2n1` [Example 1170, [2-Methoxy-4-(4-morpholin-4-yl-piperidin-1-yl)-phenyl]-(7-pyridin-3-yl-pyrrolo[2,1-f][1,2,4]triazin-2-yl)-amine] the same measures were < 100 nM and 100 to 1000 nM.
As to `CN(c1ccccc1-c1ccc2cnc(OCCN3CCN(c4ccc(N)cc4)CC3)nn12)S(C)(=O)=O` [Example 1172, N-[2-(2-{2-[4-(4-Amino-phenyl)-piperazin-1-yl]-ethoxy}-pyrrolo[2,1-f][1,2,4]triazin-7-yl)-phenyl]-N-methyl-methanesulfonamide], the results for the IC50 in assay [1] and in assay [2] were 1000 to 10000 nM and > 10000 nM, respectively.
For `CN1CCN(c2ccc(Nc3ncc4ccc(-c5ccccc5OCC(=O)OC(C)(C)C)n4n3)cc2)CC1` [Example 1173, (2-{2-[4-(4-Methyl-piperazin-1-yl)-phenylamino]-pyrrolo[2,1-f][1,2,4]triazin-7-yl}-phenoxy)-acetic acid tert-butyl ester] the same measures were < 100 nM and 1000 to 10000 nM.
